Measurements: patent publication US20030049267A1, “Systemic immune response induced by mucosal administration of lipid-tailed polypeptides without adjuvant” (INSTITUT PASTEUR, priority 1999, published 2003)
*: point of attachment. Palmitoyl = CCCCCCCCCCCCCCCC(=O)*

How the values were obtained:
Type in all cases: in vivo
C3H/HeJ mice = test: Isotype analysis of polypeptide-specific serum antibodies (ELISA)
[1] = tested on: spleen and inguinal lymph node cells of C3H/HeJ mice; test: Lymphocyte proliferative assay after immunization with LSA3-NRII polypeptides
Protocol: FIG. 3: Systemic cellular immune responses are electited by presentation of lipid-tailed polypeptides to the nasal and sub-lingual mucosal surfaces. Groups of five C3H/HeJ mice were administrated with LSA3-NRII lipid-tailed (black bars) or non-lipidated polypeptide (hatched bars) either a) intranasally, b) sub-lingually, or c) subcutaneously. Two weeks after two administrations, cell suspensions from individual spleens were assayed for in vitro proliferation to the recall polypeptide. Results are expressed as Δ cpm. The background cpm, in unstimulated cells were 1548 fro intranasal, 2356 for sub-lingual and 1965 for subcutaneous routs. Bars represent the mean Δ cpm ± SD in each group. The data were similar and are representative of three separate experiments.

[2] = tested on: BALB/c, C3H/HeJ, or C57BL/6 mice; test: Serum polypeptide-specific IgG ELISA after immunization with LSA3-NRII polypeptides
From the text: To investigate the ability of lipid-tailed polypeptides to induce systemic antibody responses using mucosal route, the LSA3-NRII lipid-tailed polypeptide was administrated either intranasally (I.N.) or sub-lingually (S.L.) in BALB/c, C3H/HeJ which were found previously to respond strongly to the epitopes of LSA3-NRII, or C57BL/6 mice which is poorly responsive. Negative and positive controls received respectively, the non-lipidated polypeptide administrated by IN and S.L. route, or the same lipid-tailed polypeptide injected subcutaneously (S.C.) without adjuvant.
Individual blood samples were obtained via the retro-orbital plexus by 9 to 15 days post immunization (dpi) and sera were stored at-70i C until assayed for IgG, IgA and IgM polypeptide- and parasite-specific Abs. The presence of anti-peptide antibodies in sera was determined using Enzyme-linked immunosorbent assay (ELISA) as reported previously (BenMohamed et coll., 1997). ELISA plates (Nunc, Roskilde, Denmark) were coated overnight at 4i C with 0.1 ml of LSA3-NRII or LSA1-J polypeptide solution at 3 zg/ml in PBS buffer pH 7.4 containing 3% BSA. The LSA1-J polypeptide was used as the irrelevant control of LSA3-NRII and vice versa. The plates were washed twice in PBS with 0.01% Tween-20 (PBS-T), blocked for 1 hr in PBS-T supplemented with 1% BSA prior to the addition of 0.1 ml of 1/100 dilution of mouse sera. The plates were then incubated at 37iC for one hour. After washing, the bound IgG were detected using peroxidase-conjugated goat anti-mouse IgG (Biosys, Compiegne, France) added at a 1/2000 dilution. Following incubation at 37iC for 1 hour and a final wash, 50 μl of 0.30% H2O2 containing orthophenylenediamine dihydrochloride (OPD, Sigma, St. Louis), dissolved in 0.1 M citrate buffer (pH 5.0) were added to each well at room temperature. The OD450 nm was measured using a multichannel spectrophotometer (Titertek Multiskan MCC. 340). Individual sera from all groups were diluted 1/100 and analyzed separately. Preimmune sera were used as negative controls and the results were expressed either as optical density (OD) at 450nm or as ELISA-RATIO calculated as follows: OD450 nm postimmune sera divided by OD450 nm preimmune sera. […] Isotype analysis of mouse was carried out using class specific […] Goat anti-Mouse IgA, IgM, IgGI, IgG2a, IgG2b or IgG3 HRP-Labeled (Southern Biotechnology Associates, Birmingham, USA) added at a 1/2000 dilution in PBS-T, as previously described (BenMohamed et coll., 1997).

[3] = tested on: P. falciparum sporozoites and hepatic schizonts; test: Immunofluorescent Ab assay (IFAT) of sera from mucosally immunized mice
Protocol: FIG. 2: Mucosal immunization elicits parasite-specific antibody responses. Sera were obtained from C3H/HeJ mice at 2 weeks post-immunization by either nasal or sub-lingual route and assayed fro recognition of (a) P. falciparum sporozoites and (B) hepatic schizonts in an IFI assay as described in Material and Methods. The data are representative of three independent experiments.
The reactivity of the sera against native proteins from various stages of the parasite were analyzed by IFAT using either (i) P. falciparum NF54 strain sporozoites (a gift of W. Eling), or (ii) sections from liver biopsies containing day 5 P. falciparum liver schizonts, or (iii) day 6 ½ P. falciparum liver schizonts obtained from a Chimpanzee. IFAT-labeled anti-human IgG, -A, -M (Diagnostic Pasteur France) or anti-mouse (Cappel. Wester Chester. PA) diluted {fraction (1/200 )} were employed as second Abs.

[4] = tested on: ganglia sub-mandibulaires cells of BALB/c mice

For “Ac-LEESQVNDDIFNSLVKSVQQEQQHNVK(Pam)NH2 (Ac-LEESQVNDDIFNSLVKSVQQEQQHNVK(Palmitoyl)-NH2; SMILES CCCCCCCCCCCCCCCC(=O)NCCCC[C@H](NC(=O)[C@@H](NC(=O)[C@H](CC(N)=O)NC(=O)[C@H](Cc1c[nH]cn1)NC(=O)[C@H](CCC(N)=O)NC(=O)[C@H](CCC(N)=O)NC(=O)[C@H](CCC(=O)O)NC(=O)[C@H](CCC(N)=O)NC(=O)[C@H](CCC(N)=O)NC(=O)[C@@H](NC(=O)[C@H](CO)NC(=O)[C@H](CCCCN)NC(=O)[C@@H](NC(=O)[C@H](CC(C)C)NC(=O)[C@H](CO)NC(=O)[C@H](CC(N)=O)NC(=O)[C@H](Cc1ccccc1)NC(=O)[C@@H](NC(=O)[C@H](CC(=O)O)NC(=O)[C@H](CC(=O)O)NC(=O)[C@H](CC(N)=O)NC(=O)[C@@H](NC(=O)[C@H](CCC(N)=O)NC(=O)[C@H](CO)NC(=O)[C@H](CCC(=O)O)NC(=O)[C@H](CCC(=O)O)NC(=O)[C@H](CC(C)C)NC(C)=O)C(C)C)[C@@H](C)CC)C(C)C)C(C)C)C(C)C)C(N)=O) [LSA3-NRII lipid-tailed polypeptide, P. falciparum LSA-3 derived polypeptide with palmitoyl tail on side chain of C-terminal lysylamide]”, the “anti-peptide IgA, IgM and IgG3” value (C3H/HeJ mice; all groups (I.N., S.L., S.C.)) was “low and similar titers”, the “serum antibody isotype response” value (C3H/HeJ mice; mucosal administration (I.N., S.L.)) was “preferential IgG2a” and the “serum antibody isotype response” value (C3H/HeJ mice; subcutaneous route) was “dominant IgG1”. For the same substance, the “proliferative responses against irrelevant polypeptide (LSA1-J)” value ([1]; Ag specificity control) was “lack of responses”, the “proliferative response in inguinal lymph nodes, maximal delta cpm” value ([1]; S.L. (first value)) was 12525 cpm and the “proliferative responses in spleen cells” value ([1]; S.L. or I.N. application, without mucosal adjuvant, recall polypeptide) was “strong proliferative responses”. The “phenotype of lymphoproliferative responses” value ([1]; mucosal administration, abrogated by antibodies against CD4 but not by anti-CD8) was “CD4 phenotype”, the “proliferative response in inguinal lymph nodes, maximal delta cpm” value ([1]; printed 'in S.L') was 16189 cpm and the “proliferative responses, mucosally versus subcutaneously immunized animals” value ([1]; same dose, P<0.05) was “higher levels”. The antibody response ([2]; C57BL/6 strain, mucosal or subcutaneous administration) was “No antibody response”, the “polypeptide-specific antibody responses in serum (ELISA)” value ([2]; I.N. or S.L. administration, without adjuvant, BALB/c and C3H/HeJ, serum two weeks after the second administration) was “high titers” and the “mean titers of IgG antibodies, mucosal routes versus S.C. route” value ([2]; both mucosal routes (I.N., S.L.) compared with S.C., p<0.05) was “significantly higher”. For the same substance, the “polypeptide specific antibody titers, sub-lingual versus intranasal groups” value ([2]; p<0.05 in BALB/c and p<0.01 in C3H/HeJ) was “significantly higher”, the “reactivity of induced Abs with infected RBC's” value ([3]; different steps of intra-erythrocytic maturation) was “did not react” and the “reactivity of induced Abs with intact parasite by IFAT” value ([3]; sera of mucosally immunized BALB/c and C3H/HeJ, sporozoite and liver stages) was “react with the intact parasite”.
With “Concanavaline A [CON A, reference compound]” the “immune response (CFSE shift), positive control” value ([4]; in vitro positive control) was “maximum immune response”.
With “Nh2-K(NεPam)GRQYIKANSKFIGITERGRILKEPVHGV-COOH [TT-pol. (HIV)]” the “shift of fluorescence (CFSE), immune response” value ([4]; mouse, in vivo) was “as intense as that provided by positive CON A control”.
